Where a SMILES comes first, the peptide text is derived from it. [ ]: non-standard residue; d: D form.
Legend:
Aβ1-42WT [1] = biological target: T1, Aβ1-42WT (Homo sapiens, UniProt P05067); assay: Polarized light and electron microscopy of Aβ1-42WT aggregates; assay type: biochemical; conditions: 20 days incubation, 37 °C, molar ratio 1:1 or 1:4
T1 construct: Aβ1-42WT oligomers were formed following incubation of Aβ1-42WT at a final concentration of 100 μM; made in house; host or cells: chemical synthesis (solid-phase Fmoc), no expression host
T1 sequence (P05067 672-713 limits assumed): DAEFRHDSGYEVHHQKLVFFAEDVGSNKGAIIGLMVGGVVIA
Method: Figure 3 Inhibition of aggregation of Aβ1-42WT by Aβ1-6A2VTAT(D). Polarized-light (A,B), electron microscopy (C,D) and atomic force microscopy (AFM) (E–H) studies showing the inhibitory effects of Aβ1-6A2VTAT(D) on amyloid formation, fibril production and oligomerization by Aβ1-42WT. In polarized-light and EM studies, both peptides were used at 0.125 mM, molar ratio = 1:1 or 1:4 respectively, with 20 days incubation. […] E,F: Representative Tapping mode of AFM images as determined by amplitude error data of Aβ1-42WT oligomers. Aβ1-42WT peptide 100 μM in phosphate buffer 50 mM, pH 7.4 was incubated at 4 °C for 24 h alone (E) (Z range: -10/ + 10 mV) or in presence of Aβ1-6A2VTAT(D) (F) (Z range: -10/ + 25 mV). The molar ratio of Aβ1-42WT to Aβ1-6A2VTAT(D) was 1:4. Scale bar: 1 μm, inset: 200 nm. (G,H): height plot profiles obtained along different lines traced on the topographic AFM images.
Aβ1-42WT, Aβ1-6A2VTAT(D) were dissolved in 10 mM NaOH and then diluted in an equal volume of 100 mM Tris-HCl, pH 7.0, to final concentrations (0.250 mM). […] The samples were incubated at 37 °C, and the tinctorial and ultrastructural properties of the peptide assemblies were determined at various intervals, ranging from 1 h to 20 days, as previously described. […]

Aβ1-42WT [2] = biological target: T1, Aβ1-42WT; assay: CD spectroscopy of Aβ1-42WT secondary structure; assay type: biochemical; conditions: data not shown
OP50 E. coli = conditions: peptide 1 µg/µl, 24 h, 25 °C and 37 °C, MALDI TOF MS, small fraction cleaved at Gly 11
Method: (§1) The stability of Aβ1-6A2VTAT(D) peptide to protease digestion was also investigated. To this end, the peptide (1µg/µl) was incubated at 37 °C with 10 ng/µl of proteinase K and in the presence of OP50 E. coli. […] Samples were potted on a metallic plate (MTP 384 Ground Steel, Bruker) before and 24 h after incubation at 25 °C and 37 °C, and analyzed by MALDI TOF mass spectrometry (MS).

proteinase K = proteinase K (Parengyodontium album, UniProt P06873); conditions: peptide 1 µg/µl, 10 ng/µl proteinase K, 24 h, 25 °C and 37 °C, MALDI TOF MS; small fraction cleaved at Gly 11
Chain of proteinase K (P06873 106-384, species assumed): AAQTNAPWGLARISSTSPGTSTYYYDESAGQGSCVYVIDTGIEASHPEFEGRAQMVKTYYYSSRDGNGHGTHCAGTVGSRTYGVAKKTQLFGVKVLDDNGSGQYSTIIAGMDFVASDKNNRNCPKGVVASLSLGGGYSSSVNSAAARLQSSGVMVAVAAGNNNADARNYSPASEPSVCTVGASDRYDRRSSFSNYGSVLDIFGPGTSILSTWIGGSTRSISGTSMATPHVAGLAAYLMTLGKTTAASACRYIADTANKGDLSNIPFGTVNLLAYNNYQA
Method: as §1

huAPPSwe/moAPP0/0 mice = assay: Pilot preclinical study in huAPPSwe/moAPP0/0 mice; assay type: in vivo, mouse
Method: Transgenic APP23 mice expressing the Swedish double mutation in the human APP gene[46] and knock-out for endogenous APP (huAPP^Swe/moAPP^0/0) were generated in our lab by crossing APP23 mice with APP^0/0 animals. Mice (n = 6) were treated intraperitoneally (i.p.) every day for 21 days with Aβ1-6A2VTAT(D) (10 mg/kg) or saline solution and culled 24 h after the last treatment.
(§2) The left hemisphere of each brain was homogenized in 7 volumes of 10 mM Tris-HCl, pH 7.4, added with cOmplete Mini Protease Inhibitors cocktail (Roche), sonicated for 1 min using an ultrasonic homogenizer (SONOPULS) and centrifuged at 100,000 xg for 1 h at 4 °C. The supernatant was saved as the soluble fraction; the pellet was extracted in 70% formic acid and neutralized with 20 volumes of 1 M Tris (insoluble fraction).
(§3) Aβ40, Aβ42 and aggregated Aβ were measured in both soluble and insoluble fractions by ELISA (Invitrogen). Each experiment was performed in triplicate. The analysis of APP processing followed the protocol described above. After centrifugation, the supernatant was collected as the SDS-soluble fraction, which was analyzed by western blot with the A8717 antibody (Sigma). Signal intensity of the bands was measured by Quantity One (BioRad).
(§4) Coronal slices of the right hemibrain were embedded in paraffin and cut (7μm); sections were de-waxed in xylene and hydrated through serial alcohols to water. After formic acid (80%) pre-treatment, sections were incubated overnight with anti-Aβ antibody (4G8, 1:4000; Covance). The primary antibody signal was detected with a biotinylated secondary antibody followed by horseradish streptavidin peroxidase and visualized with DAB. Amyloid deposition was quantified in mouse brain using Aβ immunostaining (4G8) and the staining intensity was evaluated semiquantitatively using a scale range from 0 to 5 by light microscopy. The assessment was conducted in two adjacent sections of the same brain area[49]. A parallel quantification of the Aβ plaque load was performed using image analysis software (NIS-elements-Nikon)[50][51][52].

APPswe/PS1dE9 mice = assay: Treatment of APPswe/PS1dE9 mice; assay type: in vivo, mouse; conditions: for amyloid burden (plaque count, area fraction): 4G8 immunohistochemistry
Source text: Heterozygous four-month-old female APPswe/PS1dE9 transgenic mice were used in this study. These mice express human APP carrying the Swedish mutation together with human presenilin 1 (PS1) carrying the pathogenic dE9 mutation. Animals were divided in 2 experimental groups (n = 10 each), treated i.p. once a week with saline solution or Aβ1-6A2VTAT(D) and culled 2.5 (intermediate time) and 5 months (final time) after treatment. In both mouse transgenic lines, the brain was removed and dissected into 2 hemibrains by midsagittal dissection. One half was immediately stored at […] for biochemical assays, the other immediately immersed in formalin (10%) overnight for immunohistochemical studies.
The Novel Object Recognition test (NOR) was used to examine the cognitive performance of animal models involved in preclinical studies, following well consolidated protocols. The results of the NOR were expressed by using:
- Discrimination index (time exploring novel object - time exploring familiar object)/(time exploring novel object + time exploring familiar object).
- Recognition index (RI): time exploring novel object/(time exploring novel object + time exploring familiar object) %.
as §2, §3, §4

[3] = i.p. daily for 21 days, vs saline, ELISA
[4] = i.p. 10 mg/kg once a week for 2.5 months, vs saline, ELISA
[5] = i.p. 10 mg/kg once a week for 5 months, vs saline

Compound: CC(C)[C@@H](NC(=O)[C@H](N)CC(=O)O)C(=O)N[C@H](CCC(=O)O)C(=O)N[C@H](Cc1ccccc1)C(=O)N[C@H](CCCNC(=N)N)C(=O)N[C@H](Cc1c[nH]cn1)C(=O)NCC(=O)NCC(=O)NCC(=O)NCC(=O)NCC(=O)N[C@H](CCCNC(=N)N)C(=O)N[C@H](CCCCN)C(=O)N[C@H](CCCCN)C(=O)N[C@H](CCCNC(=N)N)C(=O)N[C@H](CCCNC(=N)N)C(=O)N[C@H](CCC(N)=O)C(=O)N[C@H](CCCNC(=N)N)C(=O)N[C@H](CCCNC(=N)N)C(=O)N[C@H](CCCNC(=N)N)C(=O)O [Aβ1-6A2VTAT(D)] (H-[dD][dV][dE][dF][dR][dH]GGGGG[dR][dK][dK][dR][dR][dQ][dR][dR][dR]-OH; N-terminus assumed)
- amount of fibrils generated by Aβ1-42WT (electron microscopy) (Aβ1-42WT [1]): reduces the amount of fibrils generated by the full-length peptide
- formation of amyloid structures by Aβ1-42WT (polarized light) (Aβ1-42WT [1]): hinders the formation of amyloid structures
- acquisition of β-sheet conformation by Aβ1-42WT (Aβ1-42WT [2]): inhibits the acquisition of β-sheet conformation by Aβ1-42WT
- resistance to digestion with bacteria proteases (OP50 E. coli): largely resistant
- resistance to digestion with proteinase K (proteinase K): largely resistant
- intracerebral amyloid deposits (huAPPSwe/moAPP0/0 mice; 13-month-old mice, i.p. once a day for 3 weeks, 4G8 immunohistochemistry, plaque count): decrease of intracerebral amyloid deposits
- effects on APP processing (C99:C83 ratio), short-term (huAPPSwe/moAPP0/0 mice; after 3 weeks of treatment, western blot): not observed after short-term treatment schedules
- Aβ42 in the soluble fraction and Aβ40, Aβ42 and aggregated Aβ in the insoluble fraction (huAPPSwe/moAPP0/0 mice; [3]): not significantly lower
- brain Aβ40 levels in the soluble fraction (huAPPSwe/moAPP0/0 mice; [3]): reduction of Aβ40 levels in the soluble fraction
- brain aggregated Aβ (soluble fraction) (huAPPSwe/moAPP0/0 mice; [3]): decrease in aggregated Aβ
- effects on APP processing (C99:C83 ratio), short-term (APPswe/PS1dE9 mice; after 2.5 months of treatment, western blot): not observed after short-term treatment schedules
- side effect on brain (neuropathologic studies) (APPswe/PS1dE9 mice; chronic treatment, data not shown): did not result in any evident side effect on brain
- Novel Object Recognition test scores (APPswe/PS1dE9 mice; i.p. 10 mg/kg once a week for 2.5 months): small, albeit not statistically significant, improvement
- amyloid burden (plaque count, area fraction) (APPswe/PS1dE9 mice; i.p. 10 mg/kg once a week for 2.5 months, vs saline): reduction of amyloid burden
- brain Aβ40 (APPswe/PS1dE9 mice; [4]): not changed compared to controls
- brain Aβ42 in the insoluble fraction (APPswe/PS1dE9 mice; [4]): concomitant decrease in the insoluble fraction
- brain Aβ42 in the soluble fraction (APPswe/PS1dE9 mice; [4]): increase of Aβ42 in the soluble fraction
- brain aggregated Aβ, soluble and insoluble fraction (APPswe/PS1dE9 mice; [4]): reduced in both the compartments
- Novel Object Recognition test, recognition and discrimination indexes (APPswe/PS1dE9 mice; [5]): preserved cognitive function
- amyloid burden (plaque count, area fraction) (APPswe/PS1dE9 mice; [5]): unexpectedly increased
- brain Aβ levels (Aβ40, Aβ42, aggregated Aβ) (APPswe/PS1dE9 mice; i.p. 10 mg/kg once a week for 5 months, vs saline, ELISA): no significant difference compared to mice treated with saline solution
- C99:C83 ratio in brain (APP processing) (APPswe/PS1dE9 mice; i.p. every 7 days for 5 months, western blot densitometry): increase in the C99:C83 ratio
